Experiments:
Format in all cases: biochemical
Tek = molecular target: T1, Tek (Homo sapiens, UniProt Q02763); experiment: Kinase inhibition assay (33P transfer), Tek; settings: read-out: Tek-1
T1 construct: Kinases are expressed as either kinase domains or full length constructs; made in house
How it was run: (§1)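 Read-out: scintillation counts of 33P moved from ATP onto synthetic peptide polymer coated on the well surface, after washing with 0.5% phosphoric acid. Enzymes were tagged (GST or polyHistidine) and came from bacterial or insect-cell expression. IC50 marks 50% loss of incorporated label.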

Lck = molecular target: T2, Lck (Homo sapiens, UniProt P06239); experiment: Kinase inhibition assay (33P transfer), Lck; settings: read-out: Lck-1
T2 construct: Kinases are expressed as either kinase domains or full length constructs; made in house
How it was run: (§2)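 33P-ATP transfer to coated synthetic polymer substrates; acid wash (0.5% H3PO4), scintillant, liquid scintillation count. Enzymes: His- or GST-fusion kinases from E. coli or High Five insect cells.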

Hck-1 = molecular target: T3, Hck-1 (Homo sapiens, UniProt P08631); experiment: Kinase inhibition assay (33P transfer), Hck; settings: Table 6, Hck-1 kinase inhibition class
T3 construct: Kinases are expressed as either kinase domains or full length constructs; made in house

Src = molecular target: T4, Src (Homo sapiens, UniProt P12931); experiment: Kinase inhibition assay (33P transfer), Src; settings: Table 6, Src-1 kinase inhibition class
T4 construct: Kinases are expressed as either kinase domains or full length constructs; made in house
How it was run: as §1

Lyn = molecular target: T5, Lyn (Homo sapiens, UniProt P07948); experiment: Kinase inhibition assay (33P transfer), Lyn; settings: Table 6, Lyn-1 kinase inhibition class
T5 construct: Kinases are expressed as either kinase domains or full length constructs; made in house
How it was run: as §1

Ret-1 = molecular target: T6, Ret-1 (Homo sapiens, UniProt P07949); experiment: Kinase inhibition assay (33P transfer), Ret; settings: Table 6, Ret-1 kinase inhibition class
T6 construct: Kinases are expressed as either kinase domains or full length constructs; made in house

Itk = molecular target: T7, Itk (Homo sapiens, UniProt Q08881); experiment: Kinase inhibition assay (33P transfer), Itk; settings: read-out: Itk-1
T7 construct: Kinases are expressed as either kinase domains or full length constructs; made in house
T7 sequence (Q08881 1-620): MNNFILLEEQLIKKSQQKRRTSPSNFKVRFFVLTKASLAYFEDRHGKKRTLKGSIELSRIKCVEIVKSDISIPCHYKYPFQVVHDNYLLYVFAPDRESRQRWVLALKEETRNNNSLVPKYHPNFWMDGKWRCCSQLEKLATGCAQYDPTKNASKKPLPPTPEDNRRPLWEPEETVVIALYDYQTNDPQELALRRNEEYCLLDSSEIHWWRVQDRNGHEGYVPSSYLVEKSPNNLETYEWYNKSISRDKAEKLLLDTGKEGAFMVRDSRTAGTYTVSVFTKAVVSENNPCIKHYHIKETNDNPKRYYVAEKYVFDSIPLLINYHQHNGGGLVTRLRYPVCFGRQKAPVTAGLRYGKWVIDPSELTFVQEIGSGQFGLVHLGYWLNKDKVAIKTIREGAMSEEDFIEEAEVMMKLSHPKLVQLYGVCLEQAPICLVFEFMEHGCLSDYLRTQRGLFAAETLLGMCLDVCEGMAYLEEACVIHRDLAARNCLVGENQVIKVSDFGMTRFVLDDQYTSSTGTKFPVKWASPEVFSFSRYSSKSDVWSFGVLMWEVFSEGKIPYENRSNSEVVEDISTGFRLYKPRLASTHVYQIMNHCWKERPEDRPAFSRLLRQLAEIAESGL
How it was run: as §1

AKT = molecular target: T8, AKT (Homo sapiens, UniProt Q9Y243); experiment: Kinase inhibition assay (33P transfer), AKT; settings: Table 2, kinase inhibition class; read-out: AKT3-1
T8 construct: Kinases are expressed as either kinase domains or full length constructs; made in house
How it was run: as §2

EGFR = molecular target: T9, EGFR (Homo sapiens, UniProt P00533); experiment: Kinase inhibition assay (33P transfer), EGFR; settings: Table 2, kinase inhibition class; read-out: EGFR-1
T9 construct: Kinases are expressed as either kinase domains or full length constructs; made in house
How it was run: as §1

IGFR-1 = molecular target: T10, IGFR-1 (Homo sapiens, UniProt P08069); experiment: Kinase inhibition assay, IGFR-1 (Table 2); settings: Table 2, kinase inhibition class
T10 construct: Kinases are expressed as either kinase domains or full length constructs; made in house

ErbB2 = molecular target: T11, ErbB2 (Homo sapiens, UniProt P04626); experiment: Kinase inhibition assay (33P transfer), ErbB2; settings: read-out: ErbB2-2
T11 construct: Kinases are expressed as either kinase domains or full length constructs; made in house
How it was run: as §1

PDGFRB = molecular target: T12, PDGFRB (Homo sapiens, UniProt P09619); experiment: Kinase inhibition assay (33P transfer), PDGFRB; settings: read-out: PDGFRB-1
T12 construct: Kinases are expressed as either kinase domains or full length constructs; made in house

Fyn = molecular target: T13, Fyn (Homo sapiens, UniProt P06241); experiment: Kinase inhibition assay (33P transfer), Fyn; settings: read-out: Fyn-1
T13 construct: Kinases are expressed as either kinase domains or full length constructs; made in house
How it was run: as §1

FGFR1 = molecular target: T14, FGFR1 (Homo sapiens, UniProt P11362); experiment: Kinase inhibition assay (33P transfer), FGFR1; settings: read-out: FGFR1-1
T14 construct: Kinases are expressed as either kinase domains or full length constructs; made in house

Kdr = molecular target: T15, Kdr (Homo sapiens, UniProt P35968); experiment: Kinase inhibition assay (33P transfer), Kdr; settings: read-out: KDR-1
T15 construct: Kinases are expressed as either kinase domains or full length constructs; made in house
How it was run: as §2

Zap-70 = molecular target: T16, Zap-70 (Homo sapiens, UniProt P43403); experiment: Kinase inhibition assay (33P transfer), Zap-70; settings: read-out: Zap-1
T16 construct: Kinases are expressed as either kinase domains or full length constructs; made in house
T16 sequence (P43403 1-619): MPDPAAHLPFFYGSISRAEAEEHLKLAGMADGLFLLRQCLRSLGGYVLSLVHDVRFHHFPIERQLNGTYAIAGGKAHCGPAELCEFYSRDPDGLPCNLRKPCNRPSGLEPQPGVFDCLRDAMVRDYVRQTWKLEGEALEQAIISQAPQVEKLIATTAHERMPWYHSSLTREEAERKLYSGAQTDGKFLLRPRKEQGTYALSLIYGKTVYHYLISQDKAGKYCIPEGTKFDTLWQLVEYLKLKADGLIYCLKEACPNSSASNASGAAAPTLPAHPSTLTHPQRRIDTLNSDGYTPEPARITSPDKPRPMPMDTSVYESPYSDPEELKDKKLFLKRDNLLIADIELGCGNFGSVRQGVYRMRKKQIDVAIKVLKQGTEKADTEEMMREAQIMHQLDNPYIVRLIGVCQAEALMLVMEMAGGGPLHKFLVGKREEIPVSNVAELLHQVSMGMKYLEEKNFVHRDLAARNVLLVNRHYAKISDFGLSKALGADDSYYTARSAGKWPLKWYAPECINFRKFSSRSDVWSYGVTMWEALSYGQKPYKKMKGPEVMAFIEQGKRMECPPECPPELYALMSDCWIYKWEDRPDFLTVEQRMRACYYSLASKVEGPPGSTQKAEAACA
How it was run: as §2

Flt-1 = molecular target: T17, Flt-1 (Homo sapiens, UniProt P17948); experiment: Kinase inhibition assay (33P transfer), Flt-1
T17 construct: Kinases are expressed as either kinase domains or full length constructs; made in house
How it was run: as §1

c-Met = molecular target: T18, c-Met (Homo sapiens, UniProt P08581); experiment: Kinase inhibition assay (33P transfer), c-Met; settings: Table 2, kinase inhibition class; read-out: Met-1
T18 construct: Kinases are expressed as either kinase domains or full length constructs; made in house
How it was run: as §1

ErbB4 = molecular target: T19, ErbB4 (Homo sapiens, UniProt Q15303); experiment: Kinase inhibition assay (33P transfer), ErbB4; settings: read-out: ErbB4-1
T19 construct: Kinases are expressed as either kinase domains or full length constructs; made in house

EPHB4 = molecular target: T20, EPHB4 (Homo sapiens, UniProt P54760); experiment: Kinase inhibition assay (33P transfer), EPHB4; settings: read-out: EPHB4-1
T20 construct: Kinases are expressed as either kinase domains or full length constructs; made in house
T20 sequence (P54760 16-987): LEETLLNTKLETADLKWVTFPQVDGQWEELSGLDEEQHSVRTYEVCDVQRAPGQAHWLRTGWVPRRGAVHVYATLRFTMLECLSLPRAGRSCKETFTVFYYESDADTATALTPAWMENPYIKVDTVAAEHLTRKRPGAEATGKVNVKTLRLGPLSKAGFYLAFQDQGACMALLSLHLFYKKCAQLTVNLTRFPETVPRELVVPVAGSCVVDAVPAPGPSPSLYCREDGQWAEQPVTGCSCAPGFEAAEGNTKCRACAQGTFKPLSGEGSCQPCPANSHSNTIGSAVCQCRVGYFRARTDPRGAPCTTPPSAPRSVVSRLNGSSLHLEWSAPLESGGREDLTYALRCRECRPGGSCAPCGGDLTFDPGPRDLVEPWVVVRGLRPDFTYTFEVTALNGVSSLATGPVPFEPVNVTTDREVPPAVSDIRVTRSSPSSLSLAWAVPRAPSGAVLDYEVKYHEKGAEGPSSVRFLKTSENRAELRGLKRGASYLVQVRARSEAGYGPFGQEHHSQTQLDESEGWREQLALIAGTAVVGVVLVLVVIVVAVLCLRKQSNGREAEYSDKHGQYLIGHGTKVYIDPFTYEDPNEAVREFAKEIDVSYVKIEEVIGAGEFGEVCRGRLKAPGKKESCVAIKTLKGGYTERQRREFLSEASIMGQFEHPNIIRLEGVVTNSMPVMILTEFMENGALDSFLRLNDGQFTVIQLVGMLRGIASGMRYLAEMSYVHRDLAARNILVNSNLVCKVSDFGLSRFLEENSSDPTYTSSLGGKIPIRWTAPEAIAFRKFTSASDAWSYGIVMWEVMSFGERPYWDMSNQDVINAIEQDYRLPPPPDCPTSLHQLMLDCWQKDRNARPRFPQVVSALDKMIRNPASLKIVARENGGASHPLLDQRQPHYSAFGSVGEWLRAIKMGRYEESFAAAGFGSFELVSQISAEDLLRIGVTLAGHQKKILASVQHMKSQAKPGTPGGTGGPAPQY

T19 sequence (Q15303 26-1308, species assumed): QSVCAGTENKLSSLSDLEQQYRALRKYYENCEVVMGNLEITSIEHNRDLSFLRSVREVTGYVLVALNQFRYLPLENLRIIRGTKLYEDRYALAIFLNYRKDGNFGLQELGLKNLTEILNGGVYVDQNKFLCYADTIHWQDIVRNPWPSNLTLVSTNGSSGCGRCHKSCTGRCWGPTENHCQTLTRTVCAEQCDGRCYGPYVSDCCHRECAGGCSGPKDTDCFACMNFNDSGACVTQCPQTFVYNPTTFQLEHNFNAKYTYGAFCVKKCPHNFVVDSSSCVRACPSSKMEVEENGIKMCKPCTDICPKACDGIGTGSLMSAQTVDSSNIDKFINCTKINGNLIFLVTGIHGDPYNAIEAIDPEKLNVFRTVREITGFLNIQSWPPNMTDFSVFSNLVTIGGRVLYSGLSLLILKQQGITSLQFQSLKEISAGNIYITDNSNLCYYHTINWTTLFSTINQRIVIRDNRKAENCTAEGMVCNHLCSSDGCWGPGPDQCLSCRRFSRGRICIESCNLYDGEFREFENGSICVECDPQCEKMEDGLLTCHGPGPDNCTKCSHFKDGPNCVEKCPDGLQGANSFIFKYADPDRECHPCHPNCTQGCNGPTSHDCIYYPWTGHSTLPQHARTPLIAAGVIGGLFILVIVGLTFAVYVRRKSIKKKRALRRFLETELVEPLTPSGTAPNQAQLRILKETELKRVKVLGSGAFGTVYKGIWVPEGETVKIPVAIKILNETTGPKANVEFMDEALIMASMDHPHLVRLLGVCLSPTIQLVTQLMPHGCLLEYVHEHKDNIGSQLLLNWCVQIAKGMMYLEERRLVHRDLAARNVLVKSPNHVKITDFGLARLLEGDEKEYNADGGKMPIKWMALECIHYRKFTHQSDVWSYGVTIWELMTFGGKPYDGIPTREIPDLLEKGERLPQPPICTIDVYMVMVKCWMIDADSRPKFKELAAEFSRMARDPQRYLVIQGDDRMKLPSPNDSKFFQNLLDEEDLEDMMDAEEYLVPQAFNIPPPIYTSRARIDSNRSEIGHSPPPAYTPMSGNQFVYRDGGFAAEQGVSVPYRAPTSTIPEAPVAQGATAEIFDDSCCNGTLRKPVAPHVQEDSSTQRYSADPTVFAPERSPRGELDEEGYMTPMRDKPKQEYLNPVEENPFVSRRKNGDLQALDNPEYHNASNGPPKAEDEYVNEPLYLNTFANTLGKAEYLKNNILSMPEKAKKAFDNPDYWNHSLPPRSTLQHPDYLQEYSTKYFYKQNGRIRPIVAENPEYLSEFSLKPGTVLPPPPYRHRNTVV
T17 sequence (P17948 27-1338, species assumed): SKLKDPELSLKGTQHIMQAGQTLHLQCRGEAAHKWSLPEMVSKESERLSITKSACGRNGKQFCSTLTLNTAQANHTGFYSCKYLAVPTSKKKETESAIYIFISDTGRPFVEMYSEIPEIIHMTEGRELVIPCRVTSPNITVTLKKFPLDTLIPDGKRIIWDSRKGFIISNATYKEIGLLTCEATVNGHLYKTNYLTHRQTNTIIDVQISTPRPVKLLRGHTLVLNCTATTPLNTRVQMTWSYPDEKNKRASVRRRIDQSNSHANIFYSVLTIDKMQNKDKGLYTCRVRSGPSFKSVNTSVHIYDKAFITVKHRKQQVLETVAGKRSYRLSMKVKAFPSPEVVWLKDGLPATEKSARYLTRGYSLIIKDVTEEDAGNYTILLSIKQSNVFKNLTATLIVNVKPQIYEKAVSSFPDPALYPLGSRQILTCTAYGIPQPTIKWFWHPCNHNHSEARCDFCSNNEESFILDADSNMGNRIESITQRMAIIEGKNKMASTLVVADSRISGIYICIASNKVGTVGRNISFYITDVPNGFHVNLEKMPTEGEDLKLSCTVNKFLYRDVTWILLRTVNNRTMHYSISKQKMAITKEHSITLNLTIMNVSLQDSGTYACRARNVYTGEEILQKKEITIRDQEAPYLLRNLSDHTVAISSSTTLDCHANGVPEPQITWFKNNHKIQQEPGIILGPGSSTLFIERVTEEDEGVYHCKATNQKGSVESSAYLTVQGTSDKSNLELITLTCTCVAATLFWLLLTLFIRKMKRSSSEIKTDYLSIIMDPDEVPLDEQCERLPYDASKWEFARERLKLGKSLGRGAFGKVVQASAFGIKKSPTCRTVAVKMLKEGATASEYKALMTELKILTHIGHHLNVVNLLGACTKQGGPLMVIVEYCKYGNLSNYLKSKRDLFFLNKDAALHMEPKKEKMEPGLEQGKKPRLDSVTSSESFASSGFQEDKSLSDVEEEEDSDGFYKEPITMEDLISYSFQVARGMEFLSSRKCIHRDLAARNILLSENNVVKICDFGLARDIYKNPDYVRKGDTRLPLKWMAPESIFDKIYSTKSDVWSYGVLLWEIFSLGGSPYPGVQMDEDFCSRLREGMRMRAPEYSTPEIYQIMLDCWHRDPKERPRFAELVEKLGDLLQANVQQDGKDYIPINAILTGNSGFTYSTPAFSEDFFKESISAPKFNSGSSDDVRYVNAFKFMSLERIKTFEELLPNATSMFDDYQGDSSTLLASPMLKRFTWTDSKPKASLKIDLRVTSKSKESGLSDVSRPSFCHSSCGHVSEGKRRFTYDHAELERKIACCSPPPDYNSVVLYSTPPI
T1 sequence (Q02763 23-1124, species assumed): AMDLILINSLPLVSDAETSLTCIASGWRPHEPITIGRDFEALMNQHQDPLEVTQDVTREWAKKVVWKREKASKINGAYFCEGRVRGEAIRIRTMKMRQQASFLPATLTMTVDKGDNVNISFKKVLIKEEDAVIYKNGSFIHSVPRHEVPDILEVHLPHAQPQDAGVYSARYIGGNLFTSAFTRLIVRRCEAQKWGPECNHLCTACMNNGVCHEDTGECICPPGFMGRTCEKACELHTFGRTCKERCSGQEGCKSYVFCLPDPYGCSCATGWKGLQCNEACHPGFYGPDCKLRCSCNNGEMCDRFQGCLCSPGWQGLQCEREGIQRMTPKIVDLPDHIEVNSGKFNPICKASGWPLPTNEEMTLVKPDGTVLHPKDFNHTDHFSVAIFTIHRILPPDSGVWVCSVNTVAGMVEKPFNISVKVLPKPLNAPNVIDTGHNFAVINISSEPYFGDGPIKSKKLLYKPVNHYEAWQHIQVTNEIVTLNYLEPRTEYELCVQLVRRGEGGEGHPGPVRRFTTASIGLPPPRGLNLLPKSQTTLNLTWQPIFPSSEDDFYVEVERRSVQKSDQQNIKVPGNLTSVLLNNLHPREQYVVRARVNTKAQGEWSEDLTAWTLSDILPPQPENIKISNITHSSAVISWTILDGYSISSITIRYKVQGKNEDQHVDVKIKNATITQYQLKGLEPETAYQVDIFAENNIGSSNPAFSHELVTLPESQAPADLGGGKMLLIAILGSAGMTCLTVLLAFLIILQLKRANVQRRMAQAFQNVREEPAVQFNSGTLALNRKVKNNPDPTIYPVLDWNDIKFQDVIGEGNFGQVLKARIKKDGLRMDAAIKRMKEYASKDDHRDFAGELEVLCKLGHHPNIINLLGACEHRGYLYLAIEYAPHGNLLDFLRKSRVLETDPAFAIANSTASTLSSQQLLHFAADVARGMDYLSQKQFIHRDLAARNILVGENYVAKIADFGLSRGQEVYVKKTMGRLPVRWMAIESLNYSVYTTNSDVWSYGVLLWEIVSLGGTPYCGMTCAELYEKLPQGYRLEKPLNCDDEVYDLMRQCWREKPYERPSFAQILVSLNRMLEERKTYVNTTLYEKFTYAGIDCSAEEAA
T8 sequence (Q9Y243 whole entry, the tested form may be a part): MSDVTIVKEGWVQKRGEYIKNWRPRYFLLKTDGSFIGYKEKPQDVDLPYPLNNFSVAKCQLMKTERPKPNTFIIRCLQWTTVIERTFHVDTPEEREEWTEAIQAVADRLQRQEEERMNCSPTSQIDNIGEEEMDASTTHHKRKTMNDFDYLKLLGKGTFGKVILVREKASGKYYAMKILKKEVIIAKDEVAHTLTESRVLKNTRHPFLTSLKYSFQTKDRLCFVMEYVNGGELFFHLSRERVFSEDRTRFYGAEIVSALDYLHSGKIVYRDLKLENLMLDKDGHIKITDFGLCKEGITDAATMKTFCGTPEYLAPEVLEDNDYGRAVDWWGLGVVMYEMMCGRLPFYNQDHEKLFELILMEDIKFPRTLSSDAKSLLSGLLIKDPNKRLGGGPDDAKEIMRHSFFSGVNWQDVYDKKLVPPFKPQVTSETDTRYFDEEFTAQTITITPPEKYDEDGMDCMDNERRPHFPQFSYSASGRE
T13 sequence (P06241 whole entry, species assumed, the tested form may be a part): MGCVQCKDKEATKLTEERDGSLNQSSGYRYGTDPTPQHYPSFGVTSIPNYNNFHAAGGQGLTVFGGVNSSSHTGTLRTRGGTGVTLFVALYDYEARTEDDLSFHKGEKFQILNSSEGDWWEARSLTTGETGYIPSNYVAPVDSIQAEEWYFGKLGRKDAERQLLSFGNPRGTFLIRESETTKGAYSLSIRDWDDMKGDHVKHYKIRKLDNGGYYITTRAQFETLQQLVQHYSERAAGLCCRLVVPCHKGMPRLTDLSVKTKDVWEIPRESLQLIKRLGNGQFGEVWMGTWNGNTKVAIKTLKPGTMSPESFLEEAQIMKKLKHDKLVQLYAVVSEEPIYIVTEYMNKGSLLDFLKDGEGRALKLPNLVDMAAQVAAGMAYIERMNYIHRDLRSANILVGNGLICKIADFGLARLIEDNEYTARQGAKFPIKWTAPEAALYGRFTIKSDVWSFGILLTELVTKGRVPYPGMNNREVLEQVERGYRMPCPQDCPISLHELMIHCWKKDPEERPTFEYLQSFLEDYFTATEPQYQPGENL

IC50 (Tek) [µM] | IC50 (Lck) [nM] | IC50 (Hck-1) [µM] | IC50 (Src) [µM] | IC50 (Lyn) [nM] | IC50 (Ret-1) [nM] | IC50 (Itk) [µM] | IC50 (AKT) [µM] | IC50 (EGFR) [nM] | IC50 (IGFR-1) [µM] | IC50 (ErbB2) [µM] | IC50 (PDGFRB) [nM] | IC50 (Fyn) [µM] | IC50 (FGFR1) [µM] | IC50 (Kdr) [nM] | IC50 (Zap-70) [µM] | IC50 (Flt-1) [nM] | IC50 (c-Met) [µM] | IC50 (ErbB4) [nM] | IC50 (EPHB4) [µM] | SMILES
7.03 to 9.04 | < 804 | > 9.04 | > 9.04 | 804 to 4820 | < 804 | > 9.04 | > 9.04 | > 9040 | > 9.04 | 7.03 to 9.04 | < 804 | > 9.04 | < 0.804 | < 804 | > 9.04 | < 804 | > 9.04 | 804 to 4820 |  | COc1cc(Nc2ncnc(-n3c(NCc4ccccc4C)nc4ccccc43)n2)cc(OC)c1OC [Compound 511]
7.03 to 9.04 | 804 to 4820 | > 9.04 | > 9.04 | 804 to 4820 | < 804 | 4.82 to 7.03 | > 9.04 | 804 to 4820 | > 9.04 | 4.82 to 7.03 | 804 to 4820 | > 9.04 | 0.804 to 4.82 | < 804 | > 9.04 | 804 to 4820 | > 9.04 | 804 to 4820 |  | COc1cc(Nc2ncnc(-n3c(NCCc4ccccc4)nc4ccccc43)n2)cc(OC)c1OC [Compound 509]
 |  | > 9.75 | 0.867 to 5.2 | 867 to 5200 | 867 to 5200 |  |  |  |  |  |  | 5.2 to 7.59 | 7.59 to 9.75 |  |  | 867 to 5200 |  | > 9750 | 0.867 to 5.2 | COc1cc(Nc2ncnc(-n3c(N)nc4cc(C(F)(F)F)ccc43)n2)cc(OC)c1OC [Compound 292]
0.827 to 4.96 | < 827 | 0.827 to 4.96 | < 0.827 | < 827 | < 827 | 7.24 to 9.31 | 4.96 to 7.24 | < 827 | 0.827 to 4.96 | < 0.827 | < 827 | < 0.827 | 4.96 to 7.24 | 827 to 4960 | 4.96 to 7.24 | 827 to 4960 | 0.827 to 4.96 | < 827 |  | COc1cc(Nc2ncnc(Nc3ccc4c(cnn4Cc4ccccc4)c3)n2)cc(OC)c1OC [Compound 177]

Source: US7074789B2, “Kinase inhibitors” (Amgen Inc., priority 1999, dated 2006)
